Where two headings read alike, the source gives them in different places.
Tests used:
[1] = tested on: purified PLA2, from the diamond back cotton mouth snake (A. piscivorus piscivorus); test: in vivo PLA2 murine paw edema assay; parameters: species or system A. piscivorus piscivorus PLA2 in CD-1 mice
[2] = molecular target: T1, human synovial fluid PLA2 (Homo sapiens, UniProt P14555); test: in vitro isolated phospholipase A2 assay, human synovial fluid PLA2; assay type: biochemical; details: for inhibition at 10 µM: + values given without explanation, read-out: % Inhibition HSF (human synovial fluid)
T1 construct: Purified human synovial fluid; from tissue; host or cells: human synovial fluid
T1 sequence (P14555 21-144): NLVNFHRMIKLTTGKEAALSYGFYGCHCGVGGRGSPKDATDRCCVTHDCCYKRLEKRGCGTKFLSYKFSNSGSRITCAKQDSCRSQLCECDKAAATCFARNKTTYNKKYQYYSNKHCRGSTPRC
Procedure: (§1) The compounds of the invention are tested in an in vitro isolated phospholipase A2 assay to determine the ability of the test compounds to inhibit the release of arachidonic acid from an arachidonic acid-containing substrate by the action of phospholipase A2 enzyme from human and non-human sources.
(§2) Into a 15 mL polypropylene tube are added the following:
(§3) ^3 H-AA E. coli substrate^1
(§4) Tris-HCl (0.5 M) pH 7.5^3
(§5) PLA2 25 Volume yielding 12%
(§6) 100 hydrolysis in 10 min.
(§7) *pre-incubate at room temperature 30 min prior to substrate addition.
(§8) ^6 Two human PLA2 enzymes are used: a) Semipurified human
(§9) platelet acid extract PLA2 (in 10 mM sodium acetate buffer, pH 4.5).
(§10) Remove protein precipitate by centrifugation at about 2200 rpm for 10
(§11) minutes. b) Purified human synovial fluid.
(§12) Incubate the 100 μL reaction mixture for 10 minutes at 37° C. in a shaking water bath. The reaction is terminated by the addition of 2 mL tetrahydrofuran, followed by vortexing. NH2 columns (100 μg/mL--Analytichem International) are conditioned with 0.5 mL tetrahydrofuran followed by 0.5 mL tetrahydrofuran/water (2 mL:0.1 mL, v/v).
(§13) The sample is loaded onto the columns and slowly drawn through them. The hydrolyzed arachidonic acid retained in the columns is eluted therefrom with 1 mL tetrahydrofuran/glacial acetic acid (2%). The arachidonic acid is transferred to scintillation vials and quantitated by β-counting analysis. A "total counts" sample is prepared by pipetting 25 μL ^3 H-arachidonate E. coli directly into a scintillation vial to which is added 1 mL tetrahydrofuran. 10 mL aquasol (scintillation cocktail) is added to all samples.

human platelet PLA2 = molecular target: T2, human platelet PLA2 (Homo sapiens, UniProt P14555); test: in vitro isolated phospholipase A2 assay, human platelet PLA2; assay type: biochemical; details: at 10 μM; + values given without explanation; read-out: % Inhibition HP (human platelet)
T2 construct: platelet acid extract PLA2; from tissue; host or cells: human platelets, semipurified acid extract
T2 sequence (P14555 21-144): T1 sequence (P14555 21-144)
Procedure: as §1, §2, §3, §4, §5, §6, §7, §8, §9, §10, §11, §12, §13

[3] = tested on: lipoxygenase (LTB4 or 5HETE synthesis); test: inhibition of LTB4 and 5-HETE synthesis by rat glycogen-elicited polymorphonuclear leukocytes; assay type: cell-based, rat (female Wistar); details: Leukocyte, rat PMN; for inhibition at 10 µM: + with * denotes potentiation
Text: This is especially true with respect to 5,12-diHETE, which is also denoted as LTB4 [see Ford-Hitchinson, J. Roy. Soc. Med., 74, 831 (1981)]. Compounds which inhibit the PLA2 -mediated release of arachidonic acid thereby effectively prevent the oxidation of arachidonic acid to the various leukotriene products via the lipoxygenase cascade. Accordingly, the specificity of action of PLA2 inhibitors can be determined by the activity of test compounds in this assay, which measures the ability of compounds to inhibit the synthesis of LTB4 and 5-HETE by rat glycogen-elicited polymorphonuclear leukocytes (PMN) in the presence of exogenous substrate.
(§14) Rat polymorphonuclear leukocytes (PMNs) are obtained from female Wistar rats (150-200 g) which receive an injection of 6% glycogen (10 ml i.p.). Rats are sacrificed 18-24 hours post injection by CO2 asphyxiation and the elicited cells are harvested by peritoneal lavage using physiological saline (0.9% NaCl). The exudate is centrifuged at 400 xg for 10 minutes. The supernatant fluid is discarded and the cell pellet is resuspended to a concentration of 2.0×10^7 cells/mL in HBSS containing Ca^++ and Mg^++ and 10 μM L-cysteine.
(§15) To 1 mL aliquots of cell suspension, test drugs or vehicle are added, then preincubated at 37° C. for 10 minutes. A23187 (1 μM), [^3 H]-AA (3.0 μCi/mL) and unlabeled AA (1 μM) are then added and the samples are further incubated for 10 minutes. The reaction is terminated by centrifugation and pelleting cells. Supernatants are then analyzed by HPLC analysis on a 15 cm×4.6 mm ID supelcosil LC-18 (Supelco)(3M) column, using a two solvent system at a flow rate of 1.4 mL total flow as follows:
Injections: 140 μL of each supernatant is injected directly onto column and ^3 H arachidonic acid metabolites are monitored using an on-line radioactivity detector (Ramona, IN/US, Fairfield, N.J.).
Co-chromatography with standard [^3 H] leukotriene B4 (LTB4) in medium of stimulated PMN exposed to drug is compared to that found in medium of stimulated cells exposed to no drug, generating percent inhibition.
Results are expressed as percent inhibition at a given compound dose or as an IC50 value.

[4] = tested on: cyclooxygenase (PGE2 or TxB2 synthesis); test: inhibition of synthesis of cyclooxygenase products PGE2 and TxB2 by rat polymorphonuclear leukocytes; assay type: cell-based, rat (female Wistar); details: Leukocyte, rat PMN; for inhibition at 10 µM: + with * denotes potentiation
Procedure: as §14, §15
In this assay, the procedure of Example 58 is carried out as described. However, in order to determine cyclooxygenase activity, the samples are co-chromatographed with authentic reference [^3 H]-TxB2 or [^3 H]-PGE2.
The results are calculated as in Example 58 and presented below: […]

[5] = tested on: lipoxygenase and/or cyclooxygenase pathways of arachidonic acid metabolism; test: in vivo murine zymosan peritonitis assay; parameters: species or system mouse (CD-1); details: p.o.
Procedure: The compounds of the invention are evaluated for their ability to inhibit the lipoxygenase and/or cyclooxygenase pathways of arachidonic acid metabolism in the in vivo murine zymosan peritonitis assay.
Male CD-1 mice (8 weeks old) are placed in plastic boxes in groups of six. Animals are injected with 1 mL i.p. of either 1% zymosan in pyrogen free 0.9% saline or saline (unstimulated control). Compounds are dosed orally 1 hour prior to zymosan injection. Twenty minutes after zymosan injection, the mice are asphyxiated by CO2 inhalation and the peritoneal cavity is lavaged with 2 mL ice cold Hanks Balanced Salt Solution (HBSS) without CaCl2, MgSO4. 7H2 O and MgCl2.6H2 O. Peritoneal lavage fluid from each mouse is removed by syringe and placed in 5 mL plastic test tubes put on ice and volume is noted. Preparation of samples for evaluation by ELISA is as follows: Samples are centrifuged at 800 xg for 15 minutes; 1 mL of the supernatant is added to 8 mL ice cold methanol and kept at -70° C. overnight to precipitate protein; and samples are then centrifuged at 800 xg for 15 minutes, followed by a drying procedure in a Savant speed vac concentrator. The samples are reconstituted with 1 mL ice cold ELISA buffer and stored at -70° C. until assayed. The assay for eicosanoids (LTC4 and 6-keto-PGF1α) is performed according to conventional ELISA procedures.
Compounds to be tested orally are suspended in 0.5% Tween 80. Compounds to be tested intraperitoneally are suspended in 0.5% methylcellulose in 0.9% saline.
The total metabolite level in lavage fluid/mouse is calculated and the significance is determined by a one-way analysis of variance with LSD comparisons to control (p≤0.05). Drug effects are expressed as a percent change from control values.

[6] = tested on: platelet-activating factor (PAF) biosynthesis in human polymorphonuclear neutrophils (PMN); test: platelet-activating factor biosynthesis in human polymorphonuclear neutrophils (in vitro phospholipase A2 assay); assay type: cell-based; details: Homo sapiens, Polymorphonuclear neutrophil; in this assay (PAF or LTB4 readout not stated)
Procedure: The compounds of the invention are tested in an in vitro phospholipase A2 assay to determine the ability of the compounds to inhibit the biosynthesis of platelet-activating factor and LTB4 in purified human neutrophils.
A leukocyte enriched blood sample obtained from a healthy donor is procured by leukophoresis using a Haemonetics model 30+ blood processor (Biological Specialties, Inc., Lansdale, Penn.). The top "platelet-rich" layer is removed after a low speed spin (35 xg, 15 min, 25° C.) of the sample. The remaining cell suspension is centrifuged (400 xg, 10 min, 25° C.) to sediment the remaining cells. The supernatant is discarded and the cell pellet resuspended in 120 ml HBSS (without Ca^++ /Mg^++). The cell suspension is subjected to ficoll-hypaque sedimentation (Histopaque 1077, 400 xg, 30 min, 25° C.). Contaminating erythrocytes are lysed by hypotonic shock (1 min). The cells are then washed once with 40 ml of HBSS and resuspended with HBSS (without Ca^++ /Mg^++) to a concentration of 2.5×10^7 cells/ml for further use. Greater than 95% purity is obtained, as assessed by microscopic examination.
One ml of human PMN (2.5×10^7 cells/ml) is incubated with vehicle or drugs (10 μl) for 10 minutes at 30° C. After preincubation, an equal volume of HBSS (1 ml) containing 2.4 mM CaCl2, 6 μM calcium ionophore A23187 and 50 μCi [^3 H]-acetate is then incubated at 30° C. for 15 minutes. An aliquot (100 μl) of the reaction mixture is taken out and mixed with 900 μl of 15% ethanol. LTB4 is extracted by using solid phase extraction on reverse phase C18 columns to remove excess [^3 H]-acetate and PAD. The C18 column is prewashed once with 2 ml of ethanol and water. The sample aliquot is acidified with 0.1N HCl to pH 3 before applying to the column. The column is then washed with 2 ml of water followed by 2 ml of 15% ethanol and 2 ml of petroleum ether to remove excess labeled acetate. The sample is eluted with 2 ml of ethyl acetate. The collected samples are dried with nitrogen and resuspended in 0.5 ml RIA buffer. The quantity of LTB4 in the sample is obtained from RIA determination. For PAF determination, the reaction is terminated by addition of 5 ml chloroform:methanol:acetic acid (2:1:0.04, v/v/v). [^3 H]-PAF is obtained by Bligh and Dyer extraction. The chloroform phase is removed and dried under nitrogen. The residue is redissolved in 75 μl of chloroform:methanol (80:20, v/v). [^3 H]-PAF is resolved from other phospholipids by TLC on RPC18 plates with a solvent system of chloroform:methanol:water (2:3:1, v/v/v) and is quantitated using a Berthold automated TLC linear analyzer.
Data presented are the mean +/- s.d. of the values relative to control A23187 stimulated cells for each experiment assayed in triplicate. Percent inhibition when used is calculated as:
% Inhibition=100-[(x.div.Control)×100].
Dose response analysis is performed by non-linear regression analysis for curve fitting and IC50 determination.

C[C@@H]1C[C@H]2[C@@H]3CCC4=CC(=O)C=C[C@]4(C)[C@@]3(F)[C@@H](O)C[C@]2(C)[C@@]1(O)C(=O)CO [Dexamethasone, reference compound]
ED50 at +10 min. ([1]; p.o. 3 hr, at +10 min): 10 mg/kg

O=C(/C=C/c1ccccc1)C1=C(O)COC1=O [Example 8, (E)-4-Hydroxy-3-(3-(phenyl)-1-oxo-2-propenyl)-2(5H)-furanone]
IC50 ([2]; Table IV, read-out: IC50 HSF (human synovial fluid)): 10.5 µM
inhibition at 10 µM [2]: 77%
inhibition at 10 µM (human platelet PLA2): 3%
inhibition at 10 µM ([3]; read-out: % Inhibition LTB4): 10%
inhibition at 10 µM ([4]; read-out: % Inhibition TxB2): 1%

CCC/C=C\CCCCCCCCC(=O)C1=C(O)COC1=O [Example 23, 4-Hydroxy-3-((Z)-1-oxo-10-tetradecenyl)-2(5H)-furanone]
inhibition at 10 µM [2]: 44%
inhibition at 10 µM (human platelet PLA2): 52.7%
% Change in Edema 30 min ([1]; 1 mg/kg i.p.): -41%
% Change in Edema 60 min ([1]; 1 mg/kg i.p.): -20%
% Change in Edema 30 min ([1]; 10 mg/kg i.p.): -48%
% Change in Edema 60 min ([1]; 10 mg/kg i.p.): -28%
inhibition at 10 µM ([3]; read-out: % Inhibition 5-HETE): 93%
inhibition at 10 µM ([3]; read-out: % Inhibition LTB4): 83%
inhibition at 10 µM ([4]; read-out: % Inhibition PGE2): 1%
inhibition at 10 µM ([4]; read-out: % Inhibition TxB2): 8%

CCCCCC/C=C\CCCCCCCC(=O)C1=C(O)COC1=O [Example 26, 4-Hydroxy-3-((Z)-1-oxo-9-hexadecenyl)-2(5H)-furanone]
inhibition at 10 µM [2]: 1.7%
inhibition at 10 µM (human platelet PLA2): 24.4%
% Change in Edema 30 min ([1]; 1 mg/kg i.p.): -62%
% Change in Edema 60 min ([1]; 1 mg/kg i.p.): -38%
% Change in Edema 30 min ([1]; 10 mg/kg i.p.): -67%
% Change in Edema 60 min ([1]; 10 mg/kg i.p.): -43%
inhibition at 10 µM ([3]; read-out: % Inhibition 5-HETE): 85%
inhibition at 10 µM ([3]; read-out: % Inhibition LTB4): 82%
inhibition at 10 µM ([4]; read-out: % Inhibition PGE2): 6%
inhibition at 10 µM ([4]; read-out: % Inhibition TxB2): 1%

CC(C)Cc1ccc(C(C)C(=O)O)cc1 (stereo not drawn) [Ibuprofen]
ED50 LTC4 [5]: Not Active

CCc1cccc2c3c([nH]c12)C(CC)(CC(=O)O)OCC3 (stereo not drawn) [etodolac, reference compound]
inhibition at 0.5 µM ([3]; at 0.5 μM): 21%
inhibition at 0.5 µM ([4]; at 0.5 μM): 100%

CC(=O)O[C@H]1C[C@@H]2[C@@]3(C)CCCC(C)(C)[C@@H]3CC[C@@]2(C)[C@@H]2CC=C(C=O)[C@H](C=O)[C@@]12C [scalaradial, reference compound]
IC50 [6]: 1 µM

Reference: patent US5242945A, “Tetronic and thiotetronic acid derivatives as phospholipase A2 inhibitors” (American Home Products Corporation, priority 1991, dated 1993)
